Source: US9409952B2, “Peptide-compound cyclization method” (Chugai Seiyaku Kabushiki Kaisha, priority 2011, dated 2016)
Like-named read-outs stand apart in the source and are kept apart here. Starred links: 1 amine or outer side, 2 acyl side, 3 side chain; linkers in the order of their positions; H or OH if unused. Positions of bridges follow the written chain, without caps; N, C: chain ends. Non-standard residues stand in square brackets, D forms with d. Residues, ends and D or L forms follow the SMILES beside them. ξ: configuration not given here. *: point of attachment. NMeF = CN[C@@H](Cc1ccccc1)C(=O)O; NMeI = CC[C@H](C)[C@H](NC)C(=O)O; NMeβAla = CN(CCC(=O)[*:2])[*:1]; NMeL = CN[C@@H](CC(C)C)C(=O)O; ξNMeF = CNC(Cc1ccccc1)C(=O)O; NMeV = CN[C@H](C(=O)O)C(C)C; NMeA = CN[C@@H](C)C(=O)O; Piperidide = C1CCN(*)CC1; dNMeA = CN[C@H](C)C(=O)O; β3hA = C[C@H](N)CC(=O)O; Sar = CNCC(=O)O; tBu = CC(C)(C)*

Tests used:
[1] = PAMPA (parallel artificial membrane permeability assay); type: in vitro ADME; conditions: PAMPA
Outline: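 Artificial membrane was 10% (w/v) egg lecithin plus 0.5% (w/v) cholesterol in dodecane on a PVDF filter. A 10 mM DMSO stock was added at 0.5% (v/v) to donor buffer (50 mM MOPSO, pH 6.5, 5.0% glycocholic acid). After 18 h at 37 °C, LC/MS or LC/UV gave donor and acceptor levels for Pe.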

[2] = Metabolic stability in human hepatic microsome; type: in vitro ADME; conditions: microsomes
[3] = membrane permeation rate (Pe), 50 mM MOPSO buffer pH 6.5 with 5.0% glycocholic acid, 37° C., 18 hours, read-out: iPAMPA Pe
[4] = pH 7.4, human hepatic microsome, NADPH(+), read-out: CL NADPH(+)

Row | Structure (SMILES) | Papp at 18 hours, 50 µM ([1]; pH 6.5) [×10⁻⁶ cm/s] | microsomal CLint at 1 uM ([2]; human, pH 7.4, CL NADPH(+)) [µL/min/mg] | Papp at 18 hours, 50 µM [1, 3] [×10⁻⁶ cm/s] | microsomal CLint at 1 uM [2, 4] [µL/min/mg]
1 | CC[C@H](C)[C@H]1C(=O)N[C@@H]([C@@H](C)O)C(=O)N(C)[C@@H](C)C(=O)N(C)[C@@H](CC(C)C)C(=O)N[C@H](C(=O)N2CCCCC2)CC(=O)N(C)CCC(=O)N(C)[C@@H](CC(C)C)C(=O)N[C@@H](CC(C)C)C(=O)N(C)[C@@H](Cc2ccccc2)C(=O)N[C@@H](COC(C)(C)C)C(=O)N(C)C(Cc2ccccc2)C(=O)N1C (stereo partly drawn) [DP-103] ([NMeβAla][NMeL]L[NMeF]S(tBu)[ξNMeF][NMeI]T[NMeA][NMeL]D-Piperidide; lactam N-11) | 19 | 73 | – | –
2 | CC[C@H](C)[C@@H]1NC(=O)[C@H](C)N(C)C(=O)CCN(C)C(=O)C[C@@H](C(=O)N2CCCCC2)NC(=O)[C@H](CC(C)C)N(C)C(=O)[C@H](CC(C)C)N(C)C(=O)[C@H](C)N(C)C(=O)[C@H]([C@@H](C)O)NC(=O)[C@H](Cc2ccccc2)N(C)C(=O)[C@H](Cc2ccccc2)N(C)C1=O [DP-140] ([NMeβAla][NMeA]I[NMeF][NMeF]T[NMeA][NMeL][NMeL]D-Piperidide; lactam N-10) | – | – | 61 | 96
3 | CC(C)C[C@H]1C(=O)N[C@@H]([C@@H](C)O)C(=O)N(C)[C@@H](C)C(=O)N(C)[C@@H](Cc2ccccc2)C(=O)N(C)CC(=O)N[C@@H](C)C(=O)N(C)[C@@H](Cc2ccccc2)C(=O)N(C)[C@@H](CC(C)C)C(=O)N[C@H](C(=O)N2CCCCC2)CC(=O)N(C)[C@H](C)C(=O)N(C)[C@@H](C)C(=O)N1C [DP-419] ([dNMeA][NMeA][NMeL]T[NMeA][NMeF][Sar]A[NMeF][NMeL]D-Piperidide; lactam N-11) | – | – | 6.7 | 17
4 | CC[C@H](C)[C@@H]1NC(=O)[C@H](C)N(C)C(=O)[C@H](CC(C)C)N(C)C(=O)CCN(C)C(=O)C[C@@H](C(=O)N(C)[C@@H](Cc2ccccc2)C(=O)N[C@@H](C)C(=O)N2CCCCC2)NC(=O)[C@H](CC(C)C)N(C)C(=O)[C@H](Cc2ccccc2)N(C)C(=O)[C@H](Cc2ccccc2)N(C)C(=O)[C@H](C)N(C)C(=O)[C@H]([C@@H](C)O)NC(=O)[C@H](CC(C)C)N(C)C1=O [DP-281] ([NMeβAla][NMeL][NMeA]I[NMeL]T[NMeA][NMeF][NMeF][NMeL]D[NMeF]A-Piperidide; lactam N-11) | 17 | 28 | – | –
5 | CC[C@H](C)[C@@H]1NC(=O)[C@H](CC(C)C)NC(=O)[C@H](CC(C)C)NC(=O)[C@H](C)N(C)C(=O)[C@H](C(C)C)NC(=O)[C@H](C)NC(=O)C[C@@H](C(=O)N2CCCCC2)NC(=O)[C@H](CC(C)C)NC(=O)[C@H]([C@@H](C)O)NC(=O)[C@@H]2CCCN2C(=O)[C@H](CC(C)C)NC(=O)[C@H](Cc2ccccc2)NC1=O [DP-4] (AV[NMeA]LLIFLPTLD-Piperidide; lactam N-12) | 11 | 42 | – | –
6 | CC[C@H](C)[C@@H]1NC(=O)[C@H](CC(C)C)N(C)C(=O)[C@H](C)NC(=O)[C@H](C)N(C)C(=O)C[C@@H](C(=O)N2CCCCC2)NC(=O)[C@H](C(C)C)N(C)C(=O)[C@H](Cc2ccccc2)N(C)C(=O)[C@H]([C@@H](C)O)NC(=O)[C@H](CC(C)C)N(C)C(=O)[C@H](Cc2ccccc2)NC1=O [DP-173] ([NMeA]A[NMeL]IF[NMeL]T[NMeF][NMeV]D-Piperidide; lactam N-10) | – | – | 58 | 251
7 | CC[C@H](C)[C@H]1C(=O)N(C)[C@@H](CC(C)C)C(=O)N(C)[C@@H](Cc2ccccc2)C(=O)N[C@@H]([C@@H](C)O)C(=O)N(C)[C@@H](Cc2ccccc2)C(=O)N(C)[C@@H](CC(C)C)C(=O)N(C)[C@@H](C)C(=O)N[C@H](C(=O)N2CCCCC2)CC(=O)N[C@H](C)C(=O)N[C@@H](C)C(=O)N(C)[C@@H](CC(C)C)C(=O)N1C [DP-99] ([dA]A[NMeL][NMeI][NMeL][NMeF]T[NMeF][NMeL][NMeA]D-Piperidide; lactam N-11) | 56 | 52 | – | –
8 | CC(C)C[C@@H]1NC(=O)[C@H]([C@@H](C)O)NC(=O)[C@H](CC(C)C)N(C)C(=O)CN(C)C(=O)[C@H](Cc2ccccc2)N(C)C(=O)[C@H](CC(C)C)NC(=O)C[C@@H](C(=O)N2CCCCC2)NC1=O [DP-723] (L[NMeF][Sar][NMeL]TLD-Piperidide; lactam N-7) | – | – | 26 | 154
9 | CC(C)C[C@H]1C(=O)N(C)[C@@H](Cc2ccccc2)C(=O)N(C)[C@@H](CC(C)C)C(=O)N[C@@H](C)CC(=O)N[C@H](C(C)C)C(=O)N[C@@H](C)C(=O)N[C@@H]([C@@H](C)O)C(=O)N(C)[C@@H](C)C(=O)N[C@@H](Cc2ccccc2)C(=O)N1C [DP-788] (cyclo(AT[NMeA]F[NMeL][NMeF][NMeL][β3hA][dV])) | – | – | 49 | 158
10 | CC[C@H](C)[C@@H]1NC(=O)[C@H](Cc2ccccc2)NC(=O)[C@H](Cc2ccccc2)N(C)C(=O)CCN(C)C(=O)C[C@@H](C(=O)N2CCCCC2)NC(=O)[C@H](C)NC(=O)[C@H](CC(C)C)N(C)C(=O)[C@H](CC(C)C)N(C)C(=O)CN(C)C(=O)[C@H]([C@@H](C)O)NC(=O)[C@H](C(C)C)N(C)C(=O)[C@@H]2CCCN2C1=O [DP-134] ([NMeβAla][NMeF]FIP[NMeV]T[Sar][NMeL][NMeL]AD-Piperidide; lactam N-12) | – | – | 13 | 18
